Experimental data as given in PubChem BioAssay AID212 (DTP/NCI, 2004).
“And” between values parts separate entries of the source, which are not always exact repeats. Identical values can stand only once. Results filed as inconclusive are left out.

Tested on: BDF1 mice, colon carcinoma 38 sc, T/C %
Test: NCI In Vivo Anticancer Drug Screen. Data for tumor model Colon Carcinoma 38 (subcutaneous) in B6D2F1 (BDF1) mice
Method: The antitumor activity of compounds was measured in mice bearing transplantable tumors. Survival or tumor size were measured and the results are expressed as the measurement made in the treated group (T) divided by the measurement made in the vehicle treated control group (C). The tumor model used in this assay is Colon Carcinoma 38 (subcutaneous) in B6D2F1 (BDF1) mice

[1] = endpoint: median tumor weight (est.), dose: 50.0 mg/kg/injection, schedule: Q07DX002 (ip), vehicle: Klucel (hydroxypropylcellulose) (HPC), higher = larger tumour
[2] = endpoint: median tumor weight (est.), dose: 100.0 mg/kg/injection, schedule: Q07DX002 (ip), vehicle: Klucel (hydroxypropylcellulose) (HPC), higher = larger tumour
[3] = endpoint: median tumor weight (est.), dose: 200.0 mg/kg/injection, schedule: Q07DX002 (ip), vehicle: Klucel (hydroxypropylcellulose) (HPC), higher = larger tumour
[4] = endpoint: median tumor weight (est.), dose: 400.0 mg/kg/injection, schedule: Q07DX002 (ip), vehicle: Klucel (hydroxypropylcellulose) (HPC), higher = larger tumour
[5] = endpoint: median tumor weight (est.), dose: 12.5 mg/kg/injection, schedule: Q07DX002 (ip), vehicle: saline, higher = larger tumour
[6] = endpoint: median tumor weight (est.), dose: 50.0 mg/kg/injection, schedule: Q07DX002 (ip), vehicle: saline, higher = larger tumour
[7] = endpoint: median tumor weight (est.), dose: 6.25 mg/kg/injection, schedule: Q07DX002 (ip), vehicle: saline, higher = larger tumour
[8] = endpoint: median tumor weight (est.), dose: 25.0 mg/kg/injection, schedule: Q07DX002 (ip), vehicle: saline, higher = larger tumour

O=C1N[C@@H]([C@H]2CC[C@H](Cl)CN2)C(=O)N[C@H]1[C@H]1CC[C@H](Cl)CN1
T/C (endpoint: median tumor weight (est.), dose: 0.31 mg/kg/injection, schedule: Q07DX003 (ip), vehicle: water, higher = larger tumour): 85 % of control | T/C (endpoint: median tumor weight (est.), dose: 0.63 mg/kg/injection, schedule: Q07DX003 (ip), vehicle: water, higher = larger tumour): 110 % of control | T/C (endpoint: median tumor weight (est.), dose: 1.25 mg/kg/injection, schedule: Q07DX003 (ip), vehicle: water, higher = larger tumour): 79 % of control | T/C (endpoint: median tumor weight (est.), dose: 2.5 mg/kg/injection, schedule: Q07DX003 (ip), vehicle: water, higher = larger tumour): 70 % of control | T/C (endpoint: median tumor weight (est.), dose: 5.0 mg/kg/injection, schedule: Q07DX003 (ip), vehicle: water, higher = larger tumour): 6 % of control

OC1CCCC2CCC[N-]C12.OC1CCCC2CCC[N-]C12.[Mn+2] (stereo not drawn)
T/C (endpoint: median tumor weight (est.), dose: 12.5 mg/kg/injection, schedule: Q07DX002 (ip), vehicle: Klucel (hydroxypropylcellulose) (HPC), higher = larger tumour): 76 % of control | T/C [1]: 91 % of control | T/C [2]: 63 % of control and 84 % of control | T/C [3]: 86 % of control and 98 % of control | T/C [4]: 69 % of control

C=CS(=O)(=O)c1ccccc1
T/C (endpoint: median tumor weight (est.), dose: 6.25 mg/kg/injection, schedule: Q07DX002 (ip), vehicle: saline with Tween-80, higher = larger tumour): 91 % of control | T/C (endpoint: median tumor weight (est.), dose: 12.5 mg/kg/injection, schedule: Q07DX002 (ip), vehicle: saline with Tween-80, higher = larger tumour): 66 % of control | T/C [5]: 97 % of control | T/C (endpoint: median tumor weight (est.), dose: 25.0 mg/kg/injection, schedule: Q07DX002 (ip), vehicle: saline with Tween-80, higher = larger tumour): 174 % of control | T/C (endpoint: median tumor weight (est.), dose: 50.0 mg/kg/injection, schedule: Q07DX002 (ip), vehicle: saline with Tween-80, higher = larger tumour): 150 % of control | T/C [6]: 100 % of control | T/C (endpoint: median tumor weight (est.), dose: 100.0 mg/kg/injection, schedule: Q07DX002 (ip), vehicle: saline with Tween-80, higher = larger tumour): 109 % of control

COc1ccc2ccccc2c1C1NC(=O)c2ccccc2N1 (stereo not drawn)
T/C (endpoint: median tumor weight (est.), dose: 25.0 mg/kg/injection, schedule: Q07DX002 (ip), vehicle: Klucel (hydroxypropylcellulose) (HPC), higher = larger tumour): 76 % of control | T/C [1]: 93 % of control | T/C [2]: 59 % of control | T/C [3]: 52 % of control | T/C [4]: 69 % of control | T/C (endpoint: median tumor weight (est.), dose: 800.0 mg/kg/injection, schedule: Q07DX002 (ip), vehicle: Klucel (hydroxypropylcellulose) (HPC), higher = larger tumour): 69 % of control

O=C1C=C(C2OC(CO)C(O)C2O)C(=O)N1 (stereo not drawn)
T/C (endpoint: median tumor weight (est.), dose: 1.56 mg/kg/injection, schedule: Q07DX002 (ip), vehicle: saline, higher = larger tumour): 66 % of control | T/C (endpoint: median tumor weight (est.), dose: 3.12 mg/kg/injection, schedule: Q07DX002 (ip), vehicle: saline, higher = larger tumour): 56 % of control | T/C [7]: 70 % of control | T/C [5]: 113 % of control | T/C [8]: 83 % of control

COc1cccc2c1C(CO)N1C(C#N)C3CC(C(=O)O)C(C1C2)N3C (stereo not drawn)
T/C [7]: 71 % of control | T/C [5]: 45 % of control | T/C [8]: 108 % of control | T/C [6]: 80 % of control | T/C (endpoint: median tumor weight (est.), dose: 100.0 mg/kg/injection, schedule: Q07DX002 (ip), vehicle: saline, higher = larger tumour): 66 % of control

CCN(CC)CCOCc1cccc2c(=O)cc(-c3ccccc3)oc12
T/C [1]: 66 % of control | T/C [2]: 57 % of control

Nc1ncnc2c1ncn2C1OC(COS(N)(=O)=O)C(O)C1O (stereo not drawn)
T/C (endpoint: median survival time, dose: 0.25 mg/kg/injection, schedule: Q02DX004 (sc), vehicle: saline, higher = longer survival): 100 % of control | T/C (endpoint: median survival time, dose: 0.5 mg/kg/injection, schedule: Q02DX004 (sc), vehicle: saline, higher = longer survival): 100 % of control

Cc1cc2c(=O)cc(-c3ccccc3Cl)oc2c(C(=O)O)c1C
T/C (endpoint: median tumor weight (est.), dose: 100.0 mg/kg/injection, schedule: Q07DX002 (ip), vehicle: sodium bicarbonate, higher = larger tumour): 56 % of control | T/C (endpoint: median tumor weight (est.), dose: 200.0 mg/kg/injection, schedule: Q07DX002 (ip), vehicle: sodium bicarbonate, higher = larger tumour): 35 % of control | T/C (endpoint: median tumor weight (est.), dose: 400.0 mg/kg/injection, schedule: Q07DX002 (ip), vehicle: sodium bicarbonate, higher = larger tumour): 40 % of control

N=C(N)Sc1ccccn1
T/C (endpoint: median tumor weight (est.), dose: 100.0 mg/kg/injection, schedule: Q07DX003 (ip), vehicle: saline, higher = larger tumour): 94 % of control | T/C (endpoint: median tumor weight (est.), dose: 200.0 mg/kg/injection, schedule: Q07DX003 (ip), vehicle: saline, higher = larger tumour): 81 % of control | T/C (endpoint: median tumor weight (est.), dose: 400.0 mg/kg/injection, schedule: Q07DX003 (ip), vehicle: saline, higher = larger tumour): 88 % of control and 108 % of control
